Reference: patent US8980933B2, “Combretastatin analogs for use in the treatment of cancer” (Universitat Bayreuth, priority 2010, dated 2015)
pIC50: −log10 of the molar value. “Also recorded” adds a separate entry of the source.

What was measured:
[1] = Chemical stability of solutions stored for one month, retested in vitro; format: physicochemical; details: solution stored for one month vs freshly prepared; tubulin polymerization and SRB assays
Method: (§1) For the biotests compound 5b was dissolved in physiological saline solution. […] Customarily, in vivo applications to animals require only concentrations up to 3 mM. In order to check the chemical stability of such solutions of 5b they were stored for one month and subsequently used in in vitro tests alongside freshly prepared solutions of the same concentrations of 5b.

tubulin = assay: Tubulin Polymerization assay (fluorescence kit); format: biochemical
Method: Analysis of tubulin polymerization was performed using the Tubulin Polymerization Assay Kit (Cytoskeleton, USA) according to manufacturer's instructions. The assay is fluorescence-based and tubulin polymerization was followed by measuring RFU (relative fluorescence units) on the SpectraFluor Plus (Tecan, Switzerland) using the following filters: excitation 360 nm, emission 465 nm.

[2] = test system: H12.1 germ cell tumor cell line; assay: SRB-cytotoxicity assay, H12.1; format: cell-based; details: Homo sapiens, 96 h
Method: The cytotoxic activity of 5b was established by standard colorimetric tests (SRB- and MTT-assays) against various tumor cell lines of different entities. For the SRB cytotoxicity assay, dose-response curves of the testicular germ cell tumor cell lines exposed to drug concentrations of 0.001-10 μM were established using the sulforhodamine-B (SRB) microcuiture colorimetric assay (Papazisis et al. Optimization of the sulforhodamine B colorimetric assay. J. Immunol. Methods 1997, 208, 151-158) and performed as described in: Müller et al. Failure of activation of caspase-9 induces a higher threshold for apoptosis and cisplatin resistance in testicular cancer. Cancer Res. 2003, 63, 513-521. Briefly, cells were seeded into 96-well plates on day 0, at cell densities previously determined to ensure exponential cell growth during the period of the experiment. On day 1, cells were treated with the drugs dissolved in medium to give the appropriate concentrations for indicated times and the percentage of surviving cells relative to untreated controls was determined on day 5.

[3] = Solubility in physiological saline solution; format: physicochemical; details: saline or isotonic, read-out: concentration achieved in physiological saline solution
Method: as §1

[4] = test system: 1411HP germ cell tumor xenografts; assay: Nude mouse xenograft model of resistant 1411HP; format: in vivo; details: 60 mg/kg peroral; 24 h
HL-60 cells = assay: Mitochondrial membrane assay (JC-1), HL-60; format: cell-based, human; details: 5 μM, red/green fluorescence ratio relative to untreated controls (100%), mean ± SD
Method: Values represent means of four independent experiments±standard deviation.
Changes in mitochondrial membrane potential were determined by the Mitochondrial Membrane Detection Kit (Stratagene, La Jolla, Calif., USA) according to the manufacturer's procedure. 72 h following treatment with 5 μM of the test compounds, cell samples were centrifuged at 400 g for 5 min. The pellets were resuspended in 500 μL diluted JC-1 solution, incubated at 37° C. for 15 min (HL-60) and then centrifuged again for 5 min at 400 g. After washing, the pellets were resuspended in 100 μL PBS and transferred into the wells of a black 96-well plate. The red (λex=585 nm, λem=590 nm) and green (λex=510 nm, λem=527 nm) fluorescence intensities were measured and their ratio was calculated.

Compound	chemical stability in solution (activity retained) [1]	inhibition of tubulin polymerization (tubulin)	pIC50 [2]	solubility [3]	vascular disrupting effect after oral administration [4]	Intact mitochondria [%] in HL-60 cells after 72 h (HL-60 cells)
COc1ccc(-c2c(-c3cc(Cl)c(OC)c(OC)c3)ncn2C)cc1N [compound 5b, 1-methyl-5-(3-amino-4-methoxyphenyl)-4-(3-chloro-4,5-dimethoxyphenyl)-imidazole]	No loss of activity; also recorded: persistence of efficacy; also recorded: high, unattenuated activity and efficacy	effectively inhibits the polymerization of tubulin	7.30 to 7.52	≥ 10 mM		
COc1ccc(-c2c(-c3cc(Br)c(OC)c(OC)c3)ncn2C)cc1N [compound 6b, 1-methyl-5-(3-amino-4-methoxyphenyl)-4-(3-bromo-4,5-dimethoxyphenyl)-imidazole]					occurred to same extent as seen after i.p. application	66 ± 10%
